Measurements taken from patent publication US20050238730A1, “Compositions comprising an ethanolamine derivative and organic metal salts” (priority 2001, published 2005).

System: human dermal fibroblasts
Assay: Fibroblasts proliferation after 10 days of culture (cells trypsinized and counted with a Coulter counter)
Assay type: cell-based
Conditions: 2% FCS
Method: Fibroblasts were seeded in 24 multiwell plates at 25,000 cells per well in 1 ml of DMEM supplemented with fetal calf serum (FCS) and antibiotics. Cultures were incubated 24 hours at 37° C. to allow cell attachment and spreading. Supernatants were then eliminated and replaced with fresh medium supplemented with 2% of FCS and containing the tested product at different concentrations. After 10 days of culture, cells were trypsinized and counted with a Coulter counter.

Molecule	% effect vs control (DMAE 10^-4 M alone) [%]	% effect vs control (DMAE 10^-5 M alone) [%]	% effect vs control (metal salt alone 5 ng/ml) [%]	Mean of cell/ml (metal salt alone 5 ng/ml) [cell/ml]	% effect vs control (metal salt alone 50 ng/ml) [%]	Mean of cell/ml (metal salt alone 50 ng/ml) [cell/ml]	% effect vs control (metal salt alone 500 ng/ml) [%]	Mean of cell/ml (metal salt alone 500 ng/ml) [cell/ml]
CN(C)CCO [DMAE, dimethylaminoethanol]	31	14	–	–	–	–	–	–
N[C@@H](CC(=O)[O-])C(=O)[O-].[Mg+2] [Mg aspartate, magnesium aspartate]	–	–	2	78073 ± 4231	3	79400 ± 1674	21	92753 ± 2771
zinc gluconate [Zn gluconate]	–	–	0	–	3	–	11	–
